Measured values from US12691070B2, “Cationic lipids and preparation method thereof” (RiboX Therapeutics HK Limited, priority 2023, dated 2026).

How the values were obtained:
[1] = LNP size and polydispersity index (PDI) by dynamic light scattering; format: physicochemical; conditions: for Size: in nm (unit assumed)
Outline: (§1)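 Ribogreen fluorescence with and without Triton X-100 gave encapsulation as 100% − (intact/lysed) signal; DLS size, PDI and zeta potential measured on a Zetasizer. Particles: 50:10:38.5:1.5 lipid mix, luciferase circRNA or mRNA, lipid:nucleotide 15 or 6, microfluidic assembly at pH 4.5, PBS-dialyzed.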

[2] = LNP zeta potential (Zetasizer); format: physicochemical
Outline: as §1

[3] = RNA encapsulation efficacy by Quant-IT Ribogreen kit; format: physicochemical; conditions: for Encapsulation Efficiency %: LNP with cirRNA (SEQ ID NO: 1); for Encapsulation Efficiency: LNP with mRNA (SEQ ID NO: 2)
Outline: as §1

Hep G2 cells [4] = test: In vitro expression of firefly-luciferase, Hep G2; format: cell-based
Outline: (§2)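 Luminescence from cell lysates reports expression: luciferase activity was measured 72 h after transfection with 100 ng/mL RNA-LNPs encoding firefly luciferase.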

RAW 264.7 cells [5] = test: In vitro expression of firefly-luciferase, RAW 264.7; format: cell-based
Outline: as §2

Hep G2 cells [6] = test: In vitro toxicity (CellTiter-Glo cell viability), Hep G2; format: cell-based;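 also: percent of untreated cells luminescence signal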
Outline: (§3)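 Viability after a 72 h incubation with 1 μg/mL RNA-LNP formulations was assessed luminometrically using CellTiter-Glo.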

RAW 264.7 cells [7] = test: In vitro toxicity (CellTiter-Glo cell viability), RAW 264.7; format: cell-based;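 also: percent of untreated cells luminescence signal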
Outline: as §3

BALB/C mice [8] = test: In vivo expression, whole-body luminescence (IVIS)
Procedure: 6-8 week old, female BALB/C mice were injected with 0.05 mg*kg-1 of RNA-LNPs encoding for firefly-luciferase by intravenous injection. At 6 hours post injection, animals were intraperitoneally injected with 15 mg/ml of Luciferin substrate and whole-body luminescence was determined by a bioluminescent in vivo imaging system (IVIS).

MCP-I = MCP-I cytokine elevation in serum; format: in vivo; conditions: cirRNA (SEQ ID NO: 1) LNPs, mice
Procedure: 6-8 week old, female BALB/C mice were injected with 0.5 mg*kg-1 of RNA LNPs by intravenous injection. At 2 and 24 hours post injection, animals were bled and sera concentrations of MCP-I were determined by an immunoassay (Luminex).

[9] = test system: Alanine Aminotransferase (ALT); test: Liver enzyme elevation in serum, ALT; format: in vivo; conditions: cirRNA (SEQ ID NO: 1) LNPs, BALB/C mice, intravenous 0.5 MPK
Procedure: (§4) 6-8 week old, female BALB/C mice were injected with 0.5 mg*kg-1 of RNA LNPs by intravenous injection. At 2 and 24 hours post injection, animals were bled and sera concentrations of Alanine Aminotransferase (ALT) and Aspartate Aminotransferase (AST) were determined by a blood chemistry analyzer.

[10] = test system: Aspartate Aminotransferase (AST); test: Liver enzyme elevation in serum, AST; format: in vivo; conditions: cirRNA (SEQ ID NO: 1) LNPs, BALB/C mice, intravenous 0.5 MPK
Procedure: as §4

BALB/C mice [11] = test: Local tolerance determination by footpad injection; format: in vivo; conditions: cirRNA (SEQ ID NO: 1) LNP, 0.175 mg*kg-1 subcutaneous into the footpad, 24 hours post minus prior
Procedure: 6-8 week old, female BALB/C mice were injected with 0.175 mg*kg-1 RNA LNPs by subcutaneous injection into the footpad. Prior to, and 24 hours post injections, injected footpad thickness was determined by a caliper.

[12] = cirRNA (SEQ ID NO: 1) LNPs, firefly-luciferase luminescence, Hep G2 cells
[13] = mRNA (SEQ ID NO: 2) LNP, 100 ng/mL, 72 hours post transfection, luciferase activity
[14] = cirRNA (SEQ ID NO: 1) LNPs, firefly-luciferase luminescence, RAW 264.7 cells
[15] = cirRNA (SEQ ID NO: 1) LNPs, Hep G2 cells
[16] = mRNA (SEQ ID NO: 2) LNP, 1 μg/mL, 72 hours post transfection
[17] = cirRNA (SEQ ID NO: 1) LNPs, RAW 264.7 cells
[18] = cirRNA (SEQ ID NO: 1) LNPs, BALB/C mice
[19] = mRNA (SEQ ID NO: 2) LNP, 0.05 mg*kg-1 intravenous, 6 hours post injection

| PDI ([1]; LNP with cirRNA (SEQ ID NO: 1)) | Size ([1]; LNP with cirRNA (SEQ ID NO: 1)) | PDI ([1]; LNP with mRNA (SEQ ID NO: 2)) | Size ([1]; LNP with mRNA (SEQ ID NO: 2)) | Zeta (mV) ([2]; LNP with cirRNA (SEQ ID NO: 1)) | Zeta (mV) ([2]; LNP with mRNA (SEQ ID NO: 2)) | Encapsulation Efficiency % [3] [%] | Encapsulation Efficiency [3] [%] | MCP-I in Sera 2 hours After 0.5 MPK Injection (MCP-I) [pg/mL] | MCP-I in Sera 24 hours After 0.5 MPK Injection (MCP-I) [pg/mL] | Structure (SMILES) | In vitro Expression HepG2 (Hep G2 cells [4]; [12]) | In vitro Expression HepG2 (Hep G2 cells [4]; [13]) | In vitro Expression RAW (RAW 264.7 cells [5]; [14]) | In vitro Expression RAW (RAW 264.7 cells [5]; [13]) | In vitro Viability HepG2 (Hep G2 cells [6]; [15]) [%] | In vitro Viability HepG2 (Hep G2 cells [6]; [16]) [%] | In vitro Viability RAW (RAW 264.7 cells [7]; [17]) [%] | In vitro Viability RAW (RAW 264.7 cells [7]; [16]) [%] | In vivo Expression (Whole Body) (BALB/C mice [8]; [18]) | In vivo Expression (Whole Body) (BALB/C mice [8]; [19]) | further results |
| --- | --- | --- | --- | --- | --- | --- | --- | --- | --- | --- | --- | --- | --- | --- | --- | --- | --- | --- | --- | --- | --- |
| 0.1705 | 99.16 | 0.3512 | 178.8 | −0.1951 | −4.142 | 95 | 66.39 | 3172.67 | 1133.74 | CCCCCCCCC(CCCCCCCC)OC(=O)CCCCCCCN(CCCCCCCCOC(=O)C(CCCCCC)CCCCCCCC)CCCOC(=O)NCCN1CCCCC1 (stereo not drawn) [Lipid 351] | 1.87E+06 | 1.00E+07 | 6.44E+05 | 3.41E+06 | 96 | 87 | 98 | 94 | 1.35E+08 | 1.71E+08 | ALT in Sera (IU/L) 2 hours After 0.5 MPK Injection [9]: 74.33 IU/L; ALT in Sera (IU/L) 24 hours After 0.5 MPK Injection [9]: 149.33 IU/L; AST in Sera (IU/L) 2 hours After 0.5 MPK Injection [10]: 232.67 IU/L; AST in Sera (IU/L) 24 hours After 0.5 MPK Injection [10]: 389.33 IU/L; Footpad Thickness (24 h−0 h, mm) (BALB/C mice [11]): 0.68 mm |
| 0.1505 | 98.03 | 0.2144 | 128.6 | −2.263 | −0.3781 | 96 | 71.30 | 5469.33 | 1348.89 | CCCCCCCCC(CCCCCCCC)OC(=O)CCCCCCCN(CCCCCCCCOC(=O)C(CCCCCC)CCCCCCCC)CCCOC(=O)NCCN1CCCCCC1 (stereo not drawn) [Lipid 354] | 1.63E+06 | 7.47E+06 | 4.53E+05 | 1.10E+06 | 119 | 104 | 45 | 65 | 6.08E+08 | 7.55E+08 | ALT in Sera (IU/L) 2 hours After 0.5 MPK Injection [9]: 97.67 IU/L; ALT in Sera (IU/L) 24 hours After 0.5 MPK Injection [9]: 192.50 IU/L; AST in Sera (IU/L) 2 hours After 0.5 MPK Injection [10]: 287.33 IU/L; AST in Sera (IU/L) 24 hours After 0.5 MPK Injection [10]: 411.00 IU/L; Footpad Thickness (24 h−0 h, mm) (BALB/C mice [11]): 0.80 mm |
| 0.1084 | 93.14 | 0.1166 | 120.9 | 4.427 | 10 | 97 | 92.99 | 6463.00 | 1338.00 | CCCCCCCCCCC(CCCCCCCC)COC(=O)CCCCCN(CCCCCC(=O)OCC(CCCCCCCC)CCCCCCCCCC)CCCOC(=O)NCCN1CCCC1 (stereo not drawn) [Lipid 369] | 1.04E+06 | 7.28E+07 | 1.84E+05 | 2.18E+07 | 78 | 94 | 61 | 90 | 1.30E+07 | 6.54E+08 | ALT in Sera (IU/L) 2 hours After 0.5 MPK Injection [9]: 158.00 IU/L; ALT in Sera (IU/L) 24 hours After 0.5 MPK Injection [9]: 121.00 IU/L; AST in Sera (IU/L) 2 hours After 0.5 MPK Injection [10]: 364.00 IU/L; AST in Sera (IU/L) 24 hours After 0.5 MPK Injection [10]: 290.00 IU/L; Footpad Thickness (24 h−0 h, mm) (BALB/C mice [11]): 0.57 mm |
| 0.08162 | 90.63 | 0.1494 | 112.8 | 0.1617 | 0.9875 | 97 | 93.87 | 4872.33 | 1652.33 | CCCCCCCCCCC(CCCCCCCC)COC(=O)CCCCCN(CCCCCC(=O)OCC(CCCCCCCC)CCCCCCCCCC)CCCOC(=O)NCCN1CCCCC1 (stereo not drawn) [Lipid 370] | 2.65E+07 | 6.38E+07 | 1.98E+06 | 3.26E+07 | 93 | 94 | 96 | 107 | 3.68E+08 | 3.37E+08 | ALT in Sera (IU/L) 2 hours After 0.5 MPK Injection [9]: 102.00 IU/L; ALT in Sera (IU/L) 24 hours After 0.5 MPK Injection [9]: 123.00 IU/L; AST in Sera (IU/L) 2 hours After 0.5 MPK Injection [10]: 276.33 IU/L; AST in Sera (IU/L) 24 hours After 0.5 MPK Injection [10]: 413.33 IU/L; Footpad Thickness (24 h−0 h, mm) (BALB/C mice [11]): 0.50 mm |
| 0.1683 | 105.2 | 0.06656 | 88.86 | 3.631 | 3.895 | 96 | 85.44 | 3843.00 | 1289.00 | CCCCCCCCC(CCCCCC)C(=O)OCCCCCCCCN(CCCCCCCCOC(=O)C(CCCCCC)CCCCCCCC)CCCOC(=O)NCCN(C)C (stereo not drawn) [Lipid 374] | 1.89E+07 | 3.70E+07 | 2.34E+06 | 5.38E+05 | 70 | 57 | 84 | 84 | 1.53E+08 | 4.07E+09 | ALT in Sera (IU/L) 2 hours After 0.5 MPK Injection [9]: 136.67 IU/L; ALT in Sera (IU/L) 24 hours After 0.5 MPK Injection [9]: 152.67 IU/L; AST in Sera (IU/L) 2 hours After 0.5 MPK Injection [10]: 435.67 IU/L; AST in Sera (IU/L) 24 hours After 0.5 MPK Injection [10]: 431.67 IU/L; Footpad Thickness (24 h−0 h, mm) (BALB/C mice [11]): 0.63 mm |
| 0.2011 | 92.54 | 0.008186 | 75.13 | −1.253 | −4.713 | 89 | 88.53 | 2740.67 | 396.29 | CCCCCCCCC(CCCCCC)C(=O)OCCCCCCCCN(CCCCCCCCOC(=O)C(CCCCCC)CCCCCCCC)CCCOC(=O)NCc1ncc[nH]1 (stereo not drawn) [Lipid 375] | 1.10E+06 | 4.36E+05 | 7.06E+05 | 2.13E+05 | 100 | 100 | 90 | 78 | 3.46E+08 | 8.41E+08 | ALT in Sera (IU/L) 2 hours After 0.5 MPK Injection [9]: 174.67 IU/L; ALT in Sera (IU/L) 24 hours After 0.5 MPK Injection [9]: 120.33 IU/L; AST in Sera (IU/L) 2 hours After 0.5 MPK Injection [10]: 292.00 IU/L; AST in Sera (IU/L) 24 hours After 0.5 MPK Injection [10]: 251.67 IU/L; Footpad Thickness (24 h−0 h, mm) (BALB/C mice [11]): 0.27 mm |
